Results as given in patent US8883827B2, “Azole derivatives as WTN pathway inhibitors” (Oslo University Hospital HF, priority 2009, dated 2014).

What was measured:
Format in all cases: cell-based
canonical Wnt signaling [1] = assay: ST-Luc (SuperTOPFlash) Luciferase assay in HEK293 cells, 30% Wnt3a-CM; settings: Homo sapiens, HEK293; 10 μM compound, 30% Wnt3a-CM, 24 h; relative to DMSO control
How it was run: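 HEK293 cells were transiently co-transfected with SuperTOPFlash firefly luciferase and pRL-TK Renilla reporters, then treated 24 h with 10 μM compound in 30% Wnt3a-conditioned medium. Dual luciferase activity was read, and percent activity was expressed relative to DMSO control.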

canonical Wnt signaling [2] = assay: IC50 in STF/REN HEK293 cells, 50% Wnt3a-CM; settings: Homo sapiens; STF/REN HEK293, 50% Wnt3a-CM, 24 h
How it was run: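 HEK293 cells carrying STF/REN reporters seeded at 80,000/well on poly-L-lysine; after 24 h, exposed 24 h to compound in 50% Wnt3a-conditioned medium. Firefly and Renilla luciferase measured by Dual-Glo; IC50 fitted to a Langmuir binding isotherm.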

SW480 cells = assay: Growth inhibition (GI50) MTS assay; settings: Homo sapiens, 72 h
Protocol: Growth inhibition curves were prepared using SW480 cells, prepared essentially according to Example 23. SW480 cells (3000 cells per well) were seeded on 96 well plates (eight replicates per treatment). 24 hours later and daily thereafter, cell culture media (including 10% FBS) was mixed with various compound concentrations or with 0.1% DMSO vehicle and then added to the wells. Sixteen wells of seeded control cells, defining incubation time zero (to =24 hour after cell seeding), were incubated with […] substrate in 100 μl of phenol-free D-MEM (Invitrogen) for 2 hours, as described in the CellTiter 96® AQueous Non-Radioactive Cell Proliferation Assay protocol (MTS, Promega). The A490 was recorded. The treatment samples were likewise measured after 72 hours. The following formula was used to determine the single well relative A490 sample values: ((Sample A490−Average A490t0)*100)/(Average A490t720.1% DMSO control−Average A490t0)
XLfit (idbs) was used to determine the IC50 and GI50 values in inhibition experiments. The data were fit to the following formulae:
GI50: Eadie-Hofstee Model: fit=(A+((B*x)/((C*(D+1))+x))) inv=(((y−A)*(C*(D+1)))/((A+B)−y)) res=(y−fit)

COLO205 = assay: MTS cell proliferation assay, Table 6; settings: 10 μM, 72 h, relative to DMSO control
Text: (§1) Control cell lines used were HeLa cells (cell growth not controlled by canonical Wnt signalling) and colorectal cancer cell lines LS174T and HCT116 (with mutant β-catenin N-terminal phosphorylation sites). Target cell lines used were colorectal cancer cell lines WiDr, LoVo, HCT-8, HCT-15, COL0205, DLD-1, HT-29, SW620, SW1463, SW480 which all carry a mutant APC gene. Target cells, along with L Wnt3a-expressing cells and HEK293 cells, were purchased from ATCC (American Type Culture Collection) and maintained according to the supplier's recommendations. Wnt3a containing conditioned media (Wnt3a-CM) from L Wnt3a expressing cells was harvested as described by ATCC.
(§2) For the experiment giving the results shown in Table 6, cells were exposed to cell culture medium (including 10% FBS) containing 10 μM of the compound to be tested 24 hours after seeding (3000 cells on 96-well plates). Medium was changed daily. After 72 hours, an MTS assay (CellTiter 96® AQueous Non-Radioactive Cell Proliferation Assay—Promega) was carried out according to the standard procedure. 0.1% DMSO was used as a control.
(§3) The quantity of reduced MTS product (as measured by the absorbance at 490 nm) is directly proportional to the number of living cells in the culture and thus allows a direct comparison of cell proliferation in each case. DMSO was used as a control. The following formula was used to determine single well relative A490 sample values: ((Sample A490−Average A490t0)*100)/(Average A490t720.1% DMSO control−Average A490t0)
(§4) Data shown are A490-percentage values relative to the DMSO control, calculated as described above, and represent averages from 2 to 4 independent experiments (except SW1463 cells treated with IWR-1 which reports only a single experiment). Compounds IWR-1 and XAV939 are known Wnt pathway inhibitors.

DLD-1 = assay: MTS cell proliferation assay, Table 6; settings: 10 μM, 72 h, relative to DMSO control
Text: as §1, §2, §3, §4

HCT-15 = assay: MTS cell proliferation assay, Table 6; settings: 10 μM, 72 h, relative to DMSO control
Text: as §1, §2, §3, §4

HCT-8 = assay: MTS cell proliferation assay, Table 6; settings: 10 μM, 72 h, relative to DMSO control
Text: as §1, §2, §3, §4

HCT116 = assay: MTS cell proliferation assay, Table 6; settings: HCT116 (control); 10 μM, 72 h; relative to DMSO control
Text: as §1, §2, §3, §4

HT-29 = assay: MTS cell proliferation assay, Table 6; settings: 10 μM, 72 h, relative to DMSO control
Text: as §1, §2, §3, §4

HeLa cells = assay: MTS cell proliferation assay, Table 6; settings: HeLa (control); 10 μM, 72 h; relative to DMSO control
Text: as §1, §2, §3, §4

LS174T = assay: MTS cell proliferation assay, Table 6; settings: LS174T (control); 10 μM, 72 h; relative to DMSO control
Text: as §1, §2, §3, §4

LoVo = assay: MTS cell proliferation assay, Table 6; settings: 10 μM, 72 h, relative to DMSO control
Text: as §1, §2, §3, §4

SW1463 = assay: MTS cell proliferation assay, Table 6; settings: 10 μM, 72 h, relative to DMSO control
Text: as §1, §2, §3, §4

SW480 = assay: MTS cell proliferation assay, Table 6; settings: 10 μM, 72 h, relative to DMSO control
Text: as §1, §2, §3, §4

SW620 = assay: MTS cell proliferation assay, Table 6; settings: 10 μM, 72 h, relative to DMSO control
Text: as §1, §2, §3, §4

WiDr = assay: MTS cell proliferation assay, Table 6; settings: 10 μM, 72 h, relative to DMSO control
Text: as §1, §2, §3, §4

APC mutant cell lines = assay: MTS cell proliferation assay, Table 6, mean; settings: 10 μM, 72 h
Text: as §1, §2, §3, §4

control cell lines = assay: MTS cell proliferation assay, Table 6, mean; settings: HeLa, HCT116, LS174T; 10 μM, 72 h
Text: as §1, §2, §3, §4

Question: What does the source list for `Cc1ccc(-c2noc(CSc3nnc(-c4ccncc4)n3-c3ccccc3Cl)n2)cc1` [compound 43]?
Answer: activity at 10 µM (canonical Wnt signaling [1]): 7.8%; IC50 (canonical Wnt signaling [2]): 0.16 µM; GI50 (SW480 cells): 8 µM; Cell proliferation (%) (COLO205): 33%; Cell proliferation (%) (DLD-1): 76%; Cell proliferation (%) (HCT-15): 54%; Cell proliferation (%) (HCT-8): 69%; Cell proliferation (%) (HCT116): 86%; Cell proliferation (%) (HT-29): 63%; Cell proliferation (%) (HeLa cells): 92%; Cell proliferation (%) (LS174T): 99%; Cell proliferation (%) (LoVo): 64%; Cell proliferation (%) (SW1463): 1%; Cell proliferation (%) (SW480): 51%; Cell proliferation (%) (SW620): 33%; Cell proliferation (%) (WiDr): 76%; Ratio of means (APC mutant cell lines; APC mutant cell lines versus control cell lines): 0.56; Mean proliferation (APC mutant cell lines) (APC mutant cell lines; ten APC mutant colorectal lines): 52%; Mean proliferation (control cell lines) (control cell lines): 92%
